# Assay results published in patent US20250282768A1 (Janssen Pharmaceutica NV, priority 2022, published 2025).
# System: p-IKKa levels in L363 (NIK translocated multiple myeloma) cells
# Test: Assay 2: Effect of compounds on p-IKKa levels in L363 (NIK translocated multiple myeloma) cells
# Format: cell-based
# Details: Homo sapiens, L-363, 6 h, read-out: Assay 2 IC50 (nM), p-IKKa (Ser 176/180) in BAFF stimulated L363 cells with MG132, 6 h; average if tested more than once
# Outline: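 L363 cells incubated overnight ± 250 ng/ml BAFF, then 6 h at 37 °C with compound (0.3% DMSO) ± 10 μM MG132. Lysates assayed for p-IKKa (Ser176/180) by AlphaLISA SureFire. IC50 from sigmoidal fit of % inhibition normalized to BAFF/MG132-stimulated and unstimulated controls.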
row,Compound,IC50
1,"C[C@@H](Nc1nccc(-c2cccc(-c3cc([C@]4(O)CCN(C)C4=O)on3)n2)n1)C(=O)N1CC(F)(F)C1 [Example 169, (R)-3-(3-(6-(2-(((R)-1-(3,3-Difluoroazetidin-1-yl)-1-oxopropan-2-yl)amino)pyrimidin-4-yl)pyridin-2-yl)isoxazol-5-yl)-3-hydroxy-1-methylpyrrolidin-2-one]",> 500 nM
2,"CCC(Nc1nccc(-c2cccc(-c3cc([C@]4(O)CCN(C)C4=O)on3)n2)n1)c1ccn(C)n1 (stereo partly drawn) [Example 389, (3R)-3-Hydroxy-1-methyl-3-(3-(6-(2-((1-(1-methyl-1H-pyrazol-3-yl)propyl)amino)pyrimidin-4-yl)pyridin-2-yl)isoxazol-5-yl)pyrrolidin-2-one]",50 to 500 nM
3,"Cc1cc(Nc2nccc(-c3cccc(-c4cc([C@]5(O)CCN(C)C5=O)no4)n3)n2)ccn1 [Example 213, (R)-3-Hydroxy-1-methyl-3-(5-(6-(2-((2-methylpyridin-4-yl)amino)pyrimidin-4-yl)pyridin-2-yl)isoxazol-3-yl)pyrrolidin-2-one]",50 to 500 nM
4,"CN1CC[C@@](O)(c2cc(-c3cccc(-c4ccnc(Nc5cnc6c(c5)COCC6)n4)n3)no2)C1=O [Example 468, (R)-3-(3-(6-(2-((7,8-Dihydro-5H-pyrano[4,3-b]pyridin-3-yl)amino)pyrimidin-4-yl)pyridin-2-yl)isoxazol-5-yl)-3-hydroxy-1-methylpyrrolidin-2-one]",< 50 nM
5,"CN1CC[C@@](O)(c2cc(-c3cccc(-c4ccnc(Nc5cc6n(n5)CCNC6)n4)n3)no2)C1=O [Example 430, (R)-3-Hydroxy-1-methyl-3-(3-(6-(2-((4,5,6,7-tetrahydropyrazolo[1,5-a]pyrazin-2-yl)amino)pyrimidin-4-yl)pyridin-2-yl)isoxazol-5-yl)pyrrolidin-2-one]",50 to 500 nM
6,"Cc1ncc(C#N)cc1Nc1nccc(-c2cccc(-c3cc([C@]4(O)CCN(C)C4=O)on3)n2)n1 [Example 471, (R)-5-((4-(6-(5-(3-Hydroxy-1-methyl-2-oxopyrrolidin-3-yl)isoxazol-3-yl)pyridin-2-yl)pyrimidin-2-yl)amino)-6-methylnicotinonitrile]",< 50 nM
7,"CN1CC[C@@](O)(c2cc(-c3cccc(-c4ccnc(Nc5cn(CC(F)F)nc5OC5CC5)n4)c3)no2)C1=O [Example 413, (R)-3-(3-(3-(2-((3-Cyclopropoxy-1-(2,2-difluoroethyl)-1H-pyrazol-4-yl)amino)pyrimidin-4-yl)phenyl)isoxazol-5-yl)-3-hydroxy-1-methylpyrrolidin-2-one]",50 to 500 nM
8,"CO[C@H]1C[C@@H](Nc2nccc(-c3cccc(-c4cc([C@]5(O)CCN(C)C5=O)on4)n3)n2)C1 [Example 351, (R)-3-Hydroxy-3-(3-(6-(2-(((1s,3S)-3-methoxycyclobutyl)amino)pyrimidin-4-yl)pyridin-2-yl)isoxazol-5-yl)-1-methylpyrrolidin-2-one]",50 to 500 nM
9,"CN1CC[C@@](O)(c2cc(-c3cccc(-c4ccnc(Nc5ccnc6c5CCO6)n4)n3)no2)C1=O [Example 257, (R)-3-(3-(6-(2-((2,3-Dihydrofuro[2,3-b]pyridin-4-yl)amino)pyrimidin-4-yl)pyridin-2-yl)isoxazol-5-yl)-3-hydroxy-1-methylpyrrolidin-2-one]",< 50 nM
10,"CN1CC[C@@](O)(c2cc(-c3cccc(-c4ccnc(Nc5cnc6n5CCOCC6)n4)n3)no2)C1=O [Example 314, (R)-3-Hydroxy-1-methyl-3-(3-(6-(2-((5,6,8,9-tetrahydroimidazo[1,2-d][1,4]oxazepin-3-yl)amino)pyrimidin-4-yl)pyridin-2-yl)isoxazol-5-yl)pyrrolidin-2-one]",> 500 nM
11,"CN(C)C[C@@H](Nc1nccc(-c2cccc(-c3cc([C@]4(O)CCN(C)C4=O)on3)n2)n1)c1ccccc1 [Example 397, (R)-3-(3-(6-(2-(((S)-2-(Dimethylamino)-1-phenylethyl)amino)pyrimidin-4-yl)pyridin-2-yl)isoxazol-5-yl)-3-hydroxy-1-methylpyrrolidin-2-one]",> 500 nM
12,"CN1CC(F)(F)[C@@](O)(c2cc(-c3cncc(-c4ccnc(Nc5ccn(C)n5)n4)n3)no2)C1=O [Example 94, (R)-4,4-Difluoro-3-hydroxy-1-methyl-3-(3-(6-(2-((1-methyl-1H-pyrazol-3-yl)amino)pyrimidin-4-yl)pyrazin-2-yl)isoxazol-5-yl)pyrrolidin-2-one]",50 to 500 nM
13,"CO[C@H]1COCC[C@@H]1Nc1nccc(-c2cccc(-c3cc([C@]4(O)CCN(C)C4=O)on3)n2)n1 (stereo in doubt) [Example 355, (R)-3-Hydroxy-3-(3-(6-(2-(((trans)-3-methoxytetrahydro-2H-pyran-4-yl)amino)pyrimidin-4-yl)pyridin-2-yl)isoxazol-5-yl)-1-methylpyrrolidin-2-one]",> 500 nM
14,"CC(Nc1nccc(-c2cccc(-c3cc([C@]4(O)CCN(C)C4=O)on3)n2)n1)c1cocn1 (stereo partly drawn) [Example 373, (3R)-3-Hydroxy-1-methyl-3-(3-(6-(2-((1-(oxazol-4-yl)ethyl)amino)pyrimidin-4-yl)pyridin-2-yl)isoxazol-5-yl)pyrrolidin-2-one]",50 to 500 nM
15,"Cc1nocc1Nc1nccc(-c2cccc(-c3cc([C@]4(O)CCN(C)C4=O)on3)n2)n1 [Example 41, (R)-3-Hydroxy-1-methyl-3-(3-(6-(2-((3-methylisoxazol-4-yl)amino)pyrimidin-4-yl)pyridin-2-yl)isoxazol-5-yl)pyrrolidin-2-one]",< 50 nM
16,"CN1CC[C@](O)(c2cnn(-c3cccc(-c4ccnc(Nc5cnn(C)c5)n4)n3)c2)C1=O (single isomer, unassigned) [Example 77]",50 to 500 nM
17,"CC1OCCn2ncc(Nc3nccc(-c4cccc(-c5cc([C@]6(O)CCN(C)C6=O)on5)n4)n3)c21 (single isomer, unassigned) [Example 195, (R)-3-Hydroxy-1-methyl-3-(3-(6-(2-(((*R)-4-methyl-6,7-dihydro-4H-pyrazolo[5,1-c][1,4]oxazin-3-yl)amino)pyrimidin-4-yl)pyridin-2-yl)isoxazol-5-yl)pyrrolidin-2-one]",< 50 nM
18,"Cc1c(Nc2nccc(-c3cccc(-c4cc([C@]5(O)CCN(C)C5=O)no4)n3)n2)cnn1C [Example 238, (R)-3-(5-(6-(2-((1,5-Dimethyl-1H-pyrazol-4-yl)amino)pyrimidin-4-yl)pyridin-2-yl)isoxazol-3-yl)-3-hydroxy-1-methylpyrrolidin-2-one]",< 50 nM
19,"C[C@@H](Nc1nccc(-c2cccc(-c3cc([C@]4(O)CCN(C)C4=O)on3)n2)n1)c1ncc[nH]1 [Example 369, (R)-3-(3-(6-(2-(((R)-1-(1H-Imidazol-2-yl)ethyl)amino)pyrimidin-4-yl)pyridin-2-yl)isoxazol-5-yl)-3-hydroxy-1-methylpyrrolidin-2-one]",> 500 nM
20,"CN1CC[C@@](O)(c2csc(-c3cccc(-c4ccnc(Nc5ccn(C)n5)n4)n3)n2)C1=O (single isomer, unassigned) [Example 81]",> 500 nM
21,"CN1CC[C@@](O)(c2cc(-c3cccc(-c4ccnc(Nc5c[nH]nc5C(F)(F)F)n4)n3)no2)C1=O [Example 33, (R)-3-Hydroxy-1-methyl-3-(3-(6-(2-((3-(trifluoromethyl)-1H-pyrazol-4-yl)amino)pyrimidin-4-yl)pyridin-2-yl)isoxazol-5-yl)pyrrolidin-2-one]",> 500 nM
